Data from patent publication US20190030139A1, “USP10 MODULATION OF AMPK AND MTOR” (MAYO FOUNDATION FOR MEDICAL EDUCATION AND RESEARCH, priority 2016, published 2019).
One block for each compound: values may come before it.

Legend:
AMPK [1] = assay: Immunoblot of AMPK activation in HCT116 cells treated with Spautin-1; assay type: cell-based; details: indicated concentration of Spautin-1, immunoblot (FIG. 1I)
Procedure: FIG. 1A is a picture of an immunoblot showing the effect of USP10 knockdown on AMPK activation. HCT116 cells were infected with lentivirus encoding the indicated shRNAs. Cell lysates were immunoblotted as indicated. FIGS. 1B and 1C are a picture (FIG. 1B) and a graph (FIG. 1C) showing Oil-Red-O staining of HCT116 cells with or without shRNA knockdown of USP10. Control or USP10 knockdown HCT116 cells were incubated in medium supplemented with 200 μM sodium oleate overnight (20 hours) and fixed with formalin. The intracellular lipid droplet abundance was assessed by Oil-Red-O staining. The results represent the means (±SEM) of three independent experiments. **, p<0.01. FIG. 1D is a graph plotting lactate concentration in HCT116 cells. Lactate production was measured after incubation of control and USP10 knockdown HCT116 cells in medium for 48 hours. […] FIG. 1E is a graph plotting relative expression of aldoa, ldha, and pdkl mRNA in control or USP10 knockdown HCT116 cells, as determined by qPCR. Transcript levels were determined relative to actin mRNA levels, and normalized relative to control cells. […] The intracellular lipid droplet abundance was assessed by Oil-Red-O staining. […] The relative expression of aldoa, ldha, and pdkl mRNA in the indicated cells was determined by qPCR. Transcript levels were determined relative to actin mRNA levels, and normalized relative to control cells. […]

cancer cells = assay: Survival of cancer cells with and without USP10 after treatment with everolimus; assay type: cell-based
Excerpt: FIGS. 12A and 12B are pictures of immunoblots from co-immuno-precipitation assays showing that USP10 interacts with mTOR. […] FIG. 12D is a graph plotting survival of cancer cells with and without USP10, after treatment with the mTOR inhibitor, everolimus. […] FIG. 12E is a graph plotting survival of cancer cells with and without USP10 knockdown by shRNA, after treatment with everolimus.

Ub-AMC = assay: In vitro deubiquitinase enzymatic assay with Ub-AMC; assay type: biochemical; details: purified USP10 incubated with or without active AMPK (FIG. 9A)
Procedure: In vitro deubiquitinase enzymatic assay—In vitro enzymatic assays using ubiquitin-7-amido-4-methylcoumarin (Ub-AMC; U-550; Boston Biochem) were performed in 50-100 μl reaction buffer (20 mM HEPES-KOH [pH 7.8], 20 mM NaCl, 0.1 mg/ml ovalbumin [A7641; Sigma], 0.5 mM EDTA, and 10 mM DTT) at 25° C. Fluorescence was monitored in an INFINITE® M1000 PRO Fluorometer (TECAN).

AMPK [2] = assay: AMPK in vitro kinase assay (32P incorporation into peptides); assay type: biochemical
Procedure: AMPK in vitro kinase assay—Purified AMPK (Upstate Biotechnology) was incubated with various substrates (0.5 μg) in kinase reaction buffer (15 mM HEPES, pH 7.0, 1 mm dithiothreitol, 18.75 mM MgCl2, 1.25 mM EGTA, and 125 μM ATP and 12.5 μCi of radiolabeled ATP, with or without 150 μM AMP, at 30° C. for 30 minutes. The product was separated by SDS-PAGE and subjected to autoradiography. Phosphorylation was detected by incorporation of radiolabeled [γ-32P] ATP. To study the stoichiometry of phosphorylation of the USP10 S76 [TLPRTPSYSISST (SEQ ID NO:19), synthesized by Peptide 2.0] and SAMS (Abcam) peptides by AMPK, the peptides (20 μM) were individually incubated in 100 μl of reaction buffer at 30° C. Aliquots (10 μl) were removed at various times to measure ^32P incorporation.

ubiquitinated AMPKα = assay: In vitro deubiquitination of AMPKα; assay type: biochemical; details: bacterially-expressed USP10, ubiquitinated AMPKα substrate (FIGS. 3H and 4C)
Excerpt: In vitro deubiquitination of AMPKα—To prepare ubiquitinated AMPKα as the substrate for the in vitro deubiquitination assay, HCT116 cells were transfected with both HA-Ub and FLAG-AMPKα. […] Following extensive washing with the FLAG-lysis buffer, proteins were eluted with FLAG-peptides (Sigma). The recombinant His-USP10 and USP10CA polypeptides were expressed in BL21 cells and purified with the His-tag purification column (Novagen). For the in vitro deubiquitination assay, ubiquitinated AMPK protein was incubated with recombinant USP10 in a deubiquitination buffer (50 mM Tris-HCl pH 8.0, 50 mM NaCl, 1 mM EDTA, 10 mM DTT, 5% glycerol) overnight at 16° C.

Compound: Fc1ccc(CNc2ncnc3ccc(F)cc23)cc1 [Spautin-1]
AMPK activation (AMPK [1]): largely inhibited

Compound: CO[C@H]1C[C@@H]2CC[C@@H](C)[C@@](O)(O2)C(=O)C(=O)N2CCCC[C@H]2C(=O)O[C@H]([C@H](C)C[C@@H]2CC[C@@H](OCCO)[C@H](OC)C2)CC(=O)[C@H](C)/C=C(\C)[C@@H](O)[C@@H](OC)C(=O)[C@H](C)C[C@H](C)/C=C/C=C/C=C/1C [everolimus]
survival of cancer cells (cancer cells; USP10 shRNA knockdown vs control shRNA (FIG. 12E)): greater effect on survival of USP10 knockdown cells than on cells treated with a control shRNA
survival of cancer cells (cancer cells; cells with vs without USP10 (FIG. 12D)): decreased in the absence of USP10

Compound: S76A mutant: USP10 with S76 mutated to Ala
deubiquitinase activity toward Ub-AMC (Ub-AMC): remained low

maximal stoichiometry of phosphorylation by AMPK (AMPK [2]; after 30 minutes of incubation, calculated from FIG. 8D data (FIG. 8E)): 0.46±0.04 mol/mol
initial rate of phosphorylation by AMPK (AMPK [2]; peptide 20 μM, 30° C., mean ±SEM of three experiments (FIG. 8D)): 155±36 pmol/min/reaction mix
Compound: USP10 peptide: synthesized USP10 S76 peptide TLPRTPSYSISST (SEQ ID NO:19) (listed as Homo sapiens)

Compound: WT USP10: recombinant wild type USP10 deubiquitinase (SEQ ID NO:2), bacterially expressed
deubiquitination of AMPKα in vitro (ubiquitinated AMPKα): removed ubiquitin chain from AMPKα

Compound: phosphorylated USP10: USP10 phosphorylated using active AMPK in vitro
deubiquitinase activity toward Ub-AMC (Ub-AMC): much higher activity toward Ub-AMC
